According to patent publication US11319304B2, “Pyridine quinoline compounds as MGLUR4 allosteric potentiators, compositions, and methods of treating neurological dysfunction” (Vanderbilt University, priority 2017, dated 2022):

Biological target: mGluR4 (Homo sapiens, UniProt Q14833)
Test: mGlu4 PAM potentiation assay, CHO cells transfected with human mGluR4, Ca2+-sensitive dye fluorescence
Format: cell-based
Method: The disclosed compounds and compositions can be evaluated for their ability to act as a potentiator of metabotropic glutamate receptor activity, in particular mGluR4 activity, by any suitable known methodology known in the art. For example, Chinese Hamster Ovary (CHO) cells transfected with human mGluR4 or HEK cells co-transfected with rat mGluR4 and the G-protein regulated Inwardly Rectifying Potassium channel (GIRK) were plated in clear bottom, assay plates for assay in a Hamamatsu FDSS Fluorometric Plate Reader. The cells were loaded with either a Ca2+-sensitive fluorescent dye or the thallium responsive dye and the plates were washed and placed into a suitable kinetic plate reader. For human mGluR4 assays, a fluorescence baseline was established for 3-5 seconds, the disclosed compounds were then added to the cells, and the response in cells was measured. Approximately two and a half minutes later, a concentration of mGluR4 orthosteric agonist (e.g. glutamate, L-AP4, or L-SOP) eliciting approximately 20% (EC20) of the maximal agonist response was added to the cells, and the response was measured. Two minutes later, a concentration of mGluR4 agonist (e.g. glutamate, L-AP4, or L-SOP) eliciting 80% (EC80) of the maximal agonist response was added to the cells, and the response was measured. For rat mGluR4/GIRK experiments, a baseline was established for approximately five seconds, disclosed compounds were added, and either an EC20 or EC80 concentration of agonist was added approximately two and one half minutes later. Potentiation or antagonism of the agonist response of mGluR4 by the disclosed compounds was observed as an increase or decrease in response to the EC20 concentration of agonist in the presence of compound compared to the response to agonist in the absence of compound. Similarly, potentiation or antagonism of the agonist response of mGluR4 by the disclosed Compounds was observed as an increase or decrease in response to the EC80 concentration of agonist in the presence of compound compared to the response to agonist in the absence of compound.
The above described assay operated in two modes. In the first mode, a range of concentrations of the disclosed compounds are added to cells, followed by a single fixed concentration of agonist. If the compound acts as a potentiatior, an EC50 value for potentiation and a maximum extent of potentiation by the compound at this concentration of agonist is determined by non-linear curve fitting. If the compound acts as an antagonist, an IC50 value is determined by non-linear curve fitting. In the second mode, several fixed concentrations of the disclosed compounds are added to various wells on a plate, followed by a range in concentrations of agonist for each concentration of disclosed compound. The EC50 values for the agonist at each concentration of compound are determined by non-linear curve fitting. A decrease in the EC50 value of the agonist with increasing concentrations of the sample compound (a leftward shift of the agonist concentration-response curve) is an indication of the degree of mGluR4 potentiation at a given concentration of the sample compound. A decrease in the maximal response of the agonist with increasing concentrations of the sample compounds, with or without a rightward shift in agonist potency, is an indication of the degree of antagonism at mGluR4. The second mode also indicates whether the sample compounds also affect the maximum response to mGluR4 to agonists.

mGluR4, sequence (Q14833 33-912 limits assumed): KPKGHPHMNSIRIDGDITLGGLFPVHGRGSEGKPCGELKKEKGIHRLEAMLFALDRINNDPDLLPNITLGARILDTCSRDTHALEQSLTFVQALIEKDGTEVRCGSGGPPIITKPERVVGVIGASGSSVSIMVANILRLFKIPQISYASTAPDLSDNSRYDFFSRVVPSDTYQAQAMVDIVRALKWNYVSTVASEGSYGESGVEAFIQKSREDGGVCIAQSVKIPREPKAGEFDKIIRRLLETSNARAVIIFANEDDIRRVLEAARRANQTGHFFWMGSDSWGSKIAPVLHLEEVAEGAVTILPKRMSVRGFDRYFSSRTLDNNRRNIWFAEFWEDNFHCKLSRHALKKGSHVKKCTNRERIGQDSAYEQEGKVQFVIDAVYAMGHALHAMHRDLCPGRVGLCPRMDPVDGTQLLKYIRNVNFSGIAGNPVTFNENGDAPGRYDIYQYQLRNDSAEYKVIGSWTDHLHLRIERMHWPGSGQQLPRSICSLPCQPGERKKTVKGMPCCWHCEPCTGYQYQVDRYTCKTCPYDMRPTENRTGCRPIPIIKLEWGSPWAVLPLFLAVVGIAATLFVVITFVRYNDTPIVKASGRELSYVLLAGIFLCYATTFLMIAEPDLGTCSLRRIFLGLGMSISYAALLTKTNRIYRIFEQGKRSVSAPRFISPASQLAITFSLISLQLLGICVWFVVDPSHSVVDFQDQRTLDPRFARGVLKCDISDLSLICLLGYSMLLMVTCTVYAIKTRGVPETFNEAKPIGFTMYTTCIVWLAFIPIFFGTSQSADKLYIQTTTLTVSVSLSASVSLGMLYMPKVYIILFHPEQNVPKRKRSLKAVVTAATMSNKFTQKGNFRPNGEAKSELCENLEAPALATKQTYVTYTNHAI

Row | Compound | EC50 [nM]
1 | Cc1ccc(C(=O)Nc2ccc3c(OCC4CCOCC4)nccc3c2)nc1 [Compound 104] | 539
2 | CC1(C)CC(Oc2nccc3cc(NC(=O)c4ccccn4)ccc23)C(C)(C)O1 (stereo not drawn) [Compound 36] | 940
3 | Nc1cccnc1C(=O)Nc1ccc2c(OCC3CCOCC3)nccc2c1 [Compound 2] | 108
4 | O=C(Nc1cc(F)c2c(OCC3CCOC3)nccc2c1)c1cccc(F)n1 (stereo not drawn) [Compound 82] | 129
5 | CC1(C)CC(COc2nccc3cc(NC(=O)c4ncccc4N)ccc23)CCO1 (stereo not drawn) [Compound 35] | 227
6 | Nc1cccnc1C(=O)Nc1ccc2c(Oc3ccncc3)nccc2c1 [Compound 112] | 394

Further lines, results first:

Row | EC50 [nM] | Compound
7 | 56.3 | O=C(Nc1ccc2c(OCC3CCOC3)nccc2c1)c1ncccc1O (stereo not drawn) [Compound 17]
8 | 116 | O=C(Nc1cc(F)c2c(OCC3COCCO3)nccc2c1)c1ccccn1 (stereo not drawn) [Compound 90]
9 | 325 | CC1(COc2nccc3cc(NC(=O)c4ncccc4N)ccc23)CCOCC1 [Compound 32]
